Columns and labels:
CYP1A1 = target: T1, CYP1A1 (Homo sapiens, UniProt P04798); experiment: Inhibition of recombinant human CYP1A1 expressed in yeast microsomal membranes at 10 uM by fluorescence assay relative to control; format: cell membranes
T1 sequence (P04798 whole entry): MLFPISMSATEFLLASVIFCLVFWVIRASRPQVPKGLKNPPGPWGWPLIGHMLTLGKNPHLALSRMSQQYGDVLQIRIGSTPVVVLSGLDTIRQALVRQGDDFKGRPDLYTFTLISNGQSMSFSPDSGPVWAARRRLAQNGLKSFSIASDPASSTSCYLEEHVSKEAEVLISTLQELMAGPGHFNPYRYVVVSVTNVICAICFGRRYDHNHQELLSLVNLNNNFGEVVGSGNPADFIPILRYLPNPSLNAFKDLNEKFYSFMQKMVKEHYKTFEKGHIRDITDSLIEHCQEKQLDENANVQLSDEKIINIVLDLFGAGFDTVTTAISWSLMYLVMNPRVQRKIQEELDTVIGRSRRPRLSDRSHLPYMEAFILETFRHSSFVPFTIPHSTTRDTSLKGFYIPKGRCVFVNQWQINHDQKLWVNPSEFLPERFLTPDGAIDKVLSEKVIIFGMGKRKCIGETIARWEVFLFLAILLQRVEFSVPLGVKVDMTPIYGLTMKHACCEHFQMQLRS

Cytochrome P450 3A4 [1] = target: T2, Cytochrome P450 3A4 (Homo sapiens, UniProt P08684); experiment: Inhibition of recombinant human CYP3A4 expressed in yeast microsomal membranes by fluorescence assay; format: ADME, cell membranes, Microsomal Membrane
Cytochrome P450 1A1 [2] = target: T3, Cytochrome P450 1A1 (Homo sapiens, UniProt P04798); experiment: Inhibition of human CYP1A expressed in HEK293 cells by fluorescence assay; format: ADME, cell-based
T3 sequence (P04798 whole entry): T1 sequence (P04798 whole entry)

Cytochrome P450 1B1 [3] = target: T4, Cytochrome P450 1B1 (Homo sapiens, UniProt Q16678); experiment: Inhibition of human CYP1B1 expressed in HEK293 cells by fluorescence assay; format: cell-based
T4 sequence (Q16678 whole entry): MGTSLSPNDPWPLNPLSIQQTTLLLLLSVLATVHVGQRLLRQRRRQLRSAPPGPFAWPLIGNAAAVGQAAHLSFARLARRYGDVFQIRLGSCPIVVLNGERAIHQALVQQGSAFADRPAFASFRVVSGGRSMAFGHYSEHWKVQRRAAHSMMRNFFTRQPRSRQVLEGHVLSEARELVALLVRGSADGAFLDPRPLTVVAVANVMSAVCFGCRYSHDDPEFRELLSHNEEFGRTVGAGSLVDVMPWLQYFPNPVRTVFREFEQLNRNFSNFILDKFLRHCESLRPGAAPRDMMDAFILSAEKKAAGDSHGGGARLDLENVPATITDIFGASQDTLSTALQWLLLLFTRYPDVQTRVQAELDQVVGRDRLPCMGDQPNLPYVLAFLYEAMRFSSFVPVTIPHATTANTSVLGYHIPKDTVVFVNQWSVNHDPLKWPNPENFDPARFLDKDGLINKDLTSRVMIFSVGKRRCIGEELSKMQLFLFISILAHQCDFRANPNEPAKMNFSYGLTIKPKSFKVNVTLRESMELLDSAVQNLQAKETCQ

Cytochrome P450 1A1 [4] = target: T3, Cytochrome P450 1A1; experiment: Inhibition of recombinant human CYP1A1 expressed in yeast microsomal membranes by fluorescence assay; format: cell membranes
CYP1B1 = target: T5, CYP1B1 (Homo sapiens, UniProt Q16678); experiment: Inhibition of human CYP1B1 expressed in yeast microsomal membranes at 10 uM using 7-ethoxyresorufin as substrate by fluorescence assay relative to control; format: cell membranes; settings: probe 7-ethoxyresorufin
T5 sequence (Q16678 whole entry): T4 sequence (Q16678 whole entry)

Cytochrome P450 2D6 [5] = target: T6, Cytochrome P450 2D6 (Homo sapiens, UniProt P10635); experiment: Inhibition of recombinant human CYP2D6 expressed in yeast microsomal membranes by fluorescence assay; format: ADME, cell membranes, Microsomal Membrane
Cytochrome P450 2D6 [6] = target: T6, Cytochrome P450 2D6; experiment: Inhibition of human CYP2D6 expressed in HEK293 cells by fluorescence assay; format: ADME, cell-based
Cytochrome P450 1A2 [7] = target: T7, Cytochrome P450 1A2 (Homo sapiens, UniProt P05177); experiment: Inhibition of human CYP1A2 expressed in HEK293 cells by fluorescence assay; format: ADME, cell-based
T7 sequence (P05177 whole entry): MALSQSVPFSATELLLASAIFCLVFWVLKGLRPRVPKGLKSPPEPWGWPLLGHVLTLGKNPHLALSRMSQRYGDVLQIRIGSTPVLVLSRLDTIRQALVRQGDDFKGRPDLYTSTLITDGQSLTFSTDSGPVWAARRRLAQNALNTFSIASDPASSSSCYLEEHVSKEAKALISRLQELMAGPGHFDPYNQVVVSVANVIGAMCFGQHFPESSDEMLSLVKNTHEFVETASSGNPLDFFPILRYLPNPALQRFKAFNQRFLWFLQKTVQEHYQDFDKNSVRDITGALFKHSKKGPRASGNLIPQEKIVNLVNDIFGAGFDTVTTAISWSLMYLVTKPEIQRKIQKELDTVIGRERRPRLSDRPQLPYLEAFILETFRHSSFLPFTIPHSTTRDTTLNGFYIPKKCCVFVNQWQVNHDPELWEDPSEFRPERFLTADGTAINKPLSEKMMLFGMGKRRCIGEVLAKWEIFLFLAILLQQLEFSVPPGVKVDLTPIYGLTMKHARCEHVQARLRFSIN

Cytochrome P450 1B1 [8] = target: T4, Cytochrome P450 1B1; experiment: Inhibition of human CYP1B1 expressed in yeast microsomal membranes using 7-ethoxyresorufin as substrate by fluorescence assay; format: cell membranes
Cytochrome P450 1A2 [9] = target: T7, Cytochrome P450 1A2; experiment: Inhibition of recombinant human CYP1A2 expressed in yeast microsomal membranes by fluorescence assay; format: ADME, cell membranes, Microsomal Membrane
Cytochrome P450 3A4 [10] = target: T2, Cytochrome P450 3A4; experiment: Inhibition of human CYP3A4 expressed in HEK293 cells by fluorescence assay; format: ADME, cell-based

T6 sequence (P10635 whole entry): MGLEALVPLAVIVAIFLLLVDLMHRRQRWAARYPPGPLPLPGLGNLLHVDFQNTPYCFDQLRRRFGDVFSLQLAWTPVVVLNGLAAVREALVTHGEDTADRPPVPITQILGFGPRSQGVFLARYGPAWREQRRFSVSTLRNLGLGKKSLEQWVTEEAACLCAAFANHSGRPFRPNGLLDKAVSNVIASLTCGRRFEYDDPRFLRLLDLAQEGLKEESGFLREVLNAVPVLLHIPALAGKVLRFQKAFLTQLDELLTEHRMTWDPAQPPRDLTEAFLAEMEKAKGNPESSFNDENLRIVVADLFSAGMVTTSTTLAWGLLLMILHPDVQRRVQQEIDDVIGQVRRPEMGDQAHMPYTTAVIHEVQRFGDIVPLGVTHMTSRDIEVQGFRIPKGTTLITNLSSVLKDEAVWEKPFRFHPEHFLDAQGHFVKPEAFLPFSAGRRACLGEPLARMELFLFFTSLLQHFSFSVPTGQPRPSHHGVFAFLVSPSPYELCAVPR
T2 sequence (P08684 whole entry): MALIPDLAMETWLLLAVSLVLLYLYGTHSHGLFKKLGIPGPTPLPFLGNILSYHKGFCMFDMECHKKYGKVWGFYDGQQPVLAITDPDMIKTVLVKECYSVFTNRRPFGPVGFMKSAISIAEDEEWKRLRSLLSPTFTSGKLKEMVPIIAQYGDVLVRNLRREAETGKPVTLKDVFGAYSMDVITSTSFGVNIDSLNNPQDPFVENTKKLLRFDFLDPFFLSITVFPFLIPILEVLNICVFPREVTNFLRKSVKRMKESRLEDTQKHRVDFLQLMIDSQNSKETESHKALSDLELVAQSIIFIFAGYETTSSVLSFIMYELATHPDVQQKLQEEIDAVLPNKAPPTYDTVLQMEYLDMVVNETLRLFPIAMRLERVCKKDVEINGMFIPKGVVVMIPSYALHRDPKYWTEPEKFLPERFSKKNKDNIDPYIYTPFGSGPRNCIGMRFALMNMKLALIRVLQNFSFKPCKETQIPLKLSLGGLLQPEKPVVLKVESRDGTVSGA

| SMILES | inhibition at 10 µM (CYP1A1) [%] | inhibition at 10 µM (CYP1B1) [%] | further results |
| --- | --- | --- | --- |
| CC1(C)[C@@H](O)CC[C@]2(C)[C@H]3C(=O)C=C4[C@@H]5C[C@@](C)(C(=O)O)CC[C@]5(C)CC[C@@]4(C)[C@]3(C)CC[C@@H]12 [ENOXOLONE] | 11.4 | -2.1 |  |
| CC1(C)C=Cc2c(ccc3c2OC[C@@H](c2ccc(O)cc2O)C3)O1 [GLABRIDIN] | 36.8 | 26.6 |  |
| O=C(/C=C/c1ccc(O[C@H]2O[C@@H](CO)[C@H](O)[C@@H](O)[C@@H]2O[C@@H]2OC[C@](O)(CO)[C@H]2O)cc1)c1ccc(O)cc1O | 11.4 | -9.5 |  |
| O=c1c(O)c(-c2ccc(O)c(O)c2)oc2cc(O)cc(O)c12 [QUERCETIN] | 31.5 | 67.2 | IC50 (Cytochrome P450 2D6 [5]): > 20 µM; IC50 (Cytochrome P450 2D6 [6]): > 20 µM |
| O=c1cc(-c2ccccc2)oc2c1ccc1ccccc12 [ALPHA-NAPHTHOFLAVONE] | 97 |  |  |
| COc1ccc(-c2coc3cc(O)ccc3c2=O)cc1 [FORMONONETIN] | 10.8 | -1.3 |  |
| COc1ccc(C2COc3c(ccc4c3C=CC(C)(C)O4)C2)c(O)c1 (configuration not stated) | 29.6 | 12 |  |

Continued, in another order:

| inhibition at 10 µM (CYP1A1) [%] | inhibition at 10 µM (CYP1B1) [%] | SMILES | further results |
| --- | --- | --- | --- |
| 67.2 | 17.7 | CC(C)=CCc1cc(C2CC(=O)c3ccc(O)c(CC=C(C)C)c3O2)ccc1O (configuration not stated) | IC50 (Cytochrome P450 3A4 [1]): > 20 µM; IC50 (Cytochrome P450 1A1 [2]): > 20 µM; IC50 (Cytochrome P450 1B1 [3]): 15 µM; IC50 (Cytochrome P450 1A1 [4]): 17.6 µM; IC50 (Cytochrome P450 2D6 [5]): > 20 µM; IC50 (Cytochrome P450 2D6 [6]): > 20 µM; IC50 (Cytochrome P450 1A2 [7]): > 20 µM; IC50 (Cytochrome P450 1B1 [8]): > 20 µM; IC50 (Cytochrome P450 1A2 [9]): > 20 µM; IC50 (Cytochrome P450 3A4 [10]): > 20 µM |
| 27.5 | 31.7 | COc1ccc2c(c1)OC1c3ccc(O)cc3OCC21 (configuration not stated) |  |
| 31.4 | 7.5 | CC(C)=CCc1cc(C2Oc3c(ccc(O)c3CC=C(C)C)C(=O)C2O)ccc1O (configuration not stated) |  |
| 39 | 10.5 | CC1(C)[C@@H](O[C@H]2O[C@H](C(=O)O)[C@@H](O)[C@H](O)[C@H]2O[C@@H]2O[C@H](C(=O)O)[C@@H](O)[C@H](O)[C@H]2O)CC[C@]2(C)[C@H]3C(=O)C=C4[C@@H]5C[C@@](C)(C(=O)O)CC[C@]5(C)CC[C@@]4(C)[C@]3(C)CC[C@@H]12 [GLYCYRRHIZIN] |  |
| 22.3 | 3.1 | O=C(/C=C/c1ccc(O)cc1)c1ccc(O)cc1O [ISOLIQUIRITIGENIN] |  |
| 19.2 | 38.2 | O=C1C[C@@H](c2ccc(O)cc2)Oc2cc(O)ccc21 [LIQUIRTIGENIN] |  |
